Data published in ChEMBL document CHEMBL1142271, “New fused benzazepine as selective D3 receptor antagonists. Synthesis and biological evaluation. Part one: [h]-fused tricyclic systems” (Bioorg Med Chem Lett, 2008).

How the values were obtained:
Type in all cases: ADME, organism-based
[1] = Ratio of drug level brain to blood in iv dosed rat after 1 hr; conditions: read-out: BBR
[2] = Oral bioavailability in rat; conditions: in vivo
[3] = Blood clearance in rat; conditions: whole blood
[4] = Volume of distribution in rat; conditions: in vivo
[5] = Half life in rat; conditions: in vivo

Row | Compound | Kp at 1 h [1] | bioavailability [2] | clearance [3] | Vd [4] | half-life [5]
1 | CCc1nc2cc3c(cc2o1)CCN(CCCSc1nnc(-c2ccc(C(F)(F)F)cc2)n1C)CC3 | 3.1 | 17% | 48 mL/min/kg | 3.4 L/kg | 1.1 h
2 | Cc1ccc2c(-c3nnc(SCCCN4CCc5cc6nc(N7CCCCC7)oc6cc5CC4)n3C)cccc2n1 | 5.1 | 3% | 76 mL/min/kg |  | 
3 | Cc1ccc2c(-c3nnc(SCCCN4CCc5cc6nc(C)oc6cc5CC4)n3C)cccc2n1 | 5.4 | 34% | 47 mL/min/kg | 4.31 L/kg | 1.7 h
4 | Cc1ccc2c(-c3nnc(SCCCN4CCc5cc6nc(C)sc6cc5CC4)n3C)cccc2n1 | 4.4 | 25% | 34 mL/min/kg | 4.3 L/kg | 2.2 h
5 | Cc1ccc2c(-c3nnc(SCCCN4CCc5cc6nc(C(F)(F)F)oc6cc5CC4)n3C)cccc2n1 | 2.8 | 31% | 20 mL/min/kg | 5 L/kg | 3.3 h
6 | Cc1ccc2c(-c3nnc(SCCCN4CCc5cc6onc(C)c6cc5CC4)n3C)cccc2n1 | 7.7 | 22% | 40 mL/min/kg | 3.3 L/kg | 1.3 h
7 | Cc1ncoc1-c1nnc(SCCCN2CCc3cc4nc(C(C)C)oc4cc3CC2)n1C |  |  | 152 mL/min/kg |  | 
8 | CCc1nc2cc3c(cc2o1)CCN(CCCSc1nnc(-c2cccc4nc(C)ccc24)n1C)CC3 |  | 31% | 57 mL/min/kg | 5.1 L/kg | 1.6 h
9 | Cc1ccc2c(-c3nnc(SCCCN4CCc5cc6c(cc5CC4)N(S(C)(=O)=O)CCO6)n3C)cccc2n1 | 0.2 |  | 32 mL/min/kg | 2.4 L/kg | 1.2 h
10 | Cc1ccc2c(-c3nnc(SCCCN4CCc5cc6nc(N(C)C)oc6cc5CC4)n3C)cccc2n1 | 1.1 | 45% | 29 mL/min/kg | 2.8 L/kg | 1.6 h
11 | Cc1ccc2c(-c3nnc(SCCCN4CCc5cc6nc(C(C)C)oc6cc5CC4)n3C)cccc2n1 |  |  | 81 mL/min/kg |  | 
12 | Cc1ccc2c(-c3nnc(SCCCN4CCc5cc6nc(CC7CC7)oc6cc5CC4)n3C)cccc2n1 |  | 25% | 50 mL/min/kg | 4.3 L/kg | 
13 | Cc1nc2cc3c(cc2o1)CCN(CCCSc1nnc(-c2ccc(C(F)(F)F)cc2)n1C)CC3 | 2.9 | 17% | 62 mL/min/kg | 5.4 L/kg | 1.5 h
14 | Cc1ccc2c(-c3nnc(SCCCN4CCc5cc6nc(C(C)(C)C)oc6cc5CC4)n3C)cccc2n1 |  |  | 137 mL/min/kg |  | 
15 | CCCc1nc2cc3c(cc2o1)CCN(CCCSc1nnc(-c2cccc4nc(C)ccc24)n1C)CC3 |  | 6% | 62 mL/min/kg |  | 
16 | Cc1ncoc1-c1nnc(SCCCN2CCc3cc4nc(CC5CC5)oc4cc3CC2)n1C |  | 32% | 26 mL/min/kg | 1.7 L/kg | 
17 | Cc1ccc2c(-c3nnc(SCCCN4CCc5cc6c(cc5CC4)C(=O)N(C(C)C)C6)n3C)cccc2n1 | 0.2 | 10% | 36 mL/min/kg | 3.5 L/kg | 1.5 h
